Assays:
[1] = system: B16OVA tumor-bearing mice; assay: Copanlisib-triggered colitis in B16OVA tumor model; format: in vivo, C57BL/6 mice; conditions: copanlisib 25 mg/kg i.p.
Description: B16F10, B16OVA, and MC38 xenograft tumors were inoculated into healthy C57BL/6 mice (female, 7 to 8 weeks old) through s.c. inoculation of B16F10 cells (2.5×10^5 cells/mouse) in serum-free DMEM, B16OVA cells (2.5×10^5 cells/mouse) in serum-free RPMI 1640 culture medium, and MC38 cells (5×10^5 cells/mouse) in serum-free DMEM in the right flank. Tumor volume (volume=0.5×a×b^2, where a is the large diameter and b is the small diameter) was measured every 2 to 3 days from day 7 after the tumor was inoculated.
For the COP-triggered colitis study in the B16OVA tumor model, COP treatment was provided by i.p. administration of COP (25 mg/kg, in saline) at days 6, 8, 10, 12, 14, 16 and 18 after tumor inoculation. Colitis was induced by feeding the tumor-bearing mice 3% DSS at day 14 for 4 days. For the colitis treatment group, mice received a single s.c. treatment with COMBO COIN at day 18. Bodyweight and DAI scores were monitored every 2 or 3 days. Mice were euthanized at 22 days post-inoculation. Colons were preserved by trained veterinary technicians at the UTSW ARC Diagnostic Laboratory without prior knowledge of the treatment. The lengths of preserved colons were measured and fixed with 10% NBF for 24 h. Fixed specimens were kept in 70% ethanol and transferred to the UTSW Histo Pathology Core for histological study (H&E, Ki67 and TUNEL stains).

[2] = Aqueous electrophoresis (zeta potential); format: physicochemical; conditions: dispersed in 1X PBS, diluted 100 times with deionized water, pH 6.8-8.0, 25° C.
Description: Sphere-equivalent intensity-average diameters (Dh) and zeta potentials of all NF samples were measured in a Malvern Zetasizer Pro instrument.

Row | colitis symptoms induced by cancer treatment [1] | Compound | B16OVA tumor growth [1] | Average zeta potential [2]
1 | induced mild colitis symptoms | COc1c(OCCCN2CCOCC2)ccc2c1N=C(NC(=O)c1cnc(N)nc1)N1CCN=C21 [Copanlisib, copanlisib] | effectively inhibited B16OVA tumor growth | 
2 |  | ACESPLKRQCGGG [TGF-β1 mimetic peptide] |  | +22.1 ± 3.1 mV

Reference: patent US20260263529A1, “BIOENGINEERED COLON-SPECIFIC IMUNE NICHE FOR THE TREATMENT OF ULCERATIVE COLITIS” (THE BOARD OF REGENTS OF THE UNIVERSITY OF TEXAS SYSTEM, priority 2023, published 2026)
